The NIST ThermoML archive (doi:10.1021/je300945r)

F/C=C/C(F)(F)F [trans-1,3,3,3-tetrafluoropropene]
Details | mass density [kg/m3]
242.91 K, 56.6 kPa, Gas, isochoric method | 3.322
242.91 K, 56.7 kPa, Gas, isochoric method | 3.322
252.89 K, 59.4 kPa, Gas, isochoric method | 3.322
252.9 K, 59.4 kPa, Gas, isochoric method | 3.322
262.9 K, 62 kPa, Gas, isochoric method | 3.311
262.91 K, 61.9 kPa, Gas, isochoric method | 3.311
262.94 K, 139.4 kPa, Gas, isochoric method | 7.692
262.95 K, 139.4 kPa, Gas, isochoric method | 7.692
272.84 K, 64.4 kPa, Gas, isochoric method | 3.311
272.85 K, 64.4 kPa, Gas, isochoric method | 3.311
272.87 K, 145.5 kPa, Gas, isochoric method | 7.634
282.6 K, 151.4 kPa, Gas, isochoric method | 7.634
282.63 K, 66.9 kPa, Gas, isochoric method | 3.311
282.66 K, 238.8 kPa, Gas, isochoric method | 12.5
283.14 K, 1620 kPa, Liquid, Vibrating tube method | 1214.3
283.14 K, 2638 kPa, Liquid, Vibrating tube method | 1218.5
283.14 K, 3662 kPa, Liquid, Vibrating tube method | 1222.4
283.14 K, 5710 kPa, Liquid, Vibrating tube method | 1229.8
283.14 K, 6721 kPa, Liquid, Vibrating tube method | 1233.2
283.14 K, 7725 kPa, Liquid, Vibrating tube method | 1236.6
283.14 K, 11789 kPa, Liquid, Vibrating tube method | 1249.5
283.14 K, 12805 kPa, Liquid, Vibrating tube method | 1252.4
283.14 K, 15859 kPa, Liquid, Vibrating tube method | 1261.2
283.14 K, 16870 kPa, Liquid, Vibrating tube method | 1263.9
283.14 K, 18876 kPa, Liquid, Vibrating tube method | 1269.4
283.14 K, 20909 kPa, Liquid, Vibrating tube method | 1274.5
283.15 K, 619 kPa, Liquid, Vibrating tube method | 1210.5
283.15 K, 4689 kPa, Liquid, Vibrating tube method | 1226.1
283.15 K, 8745 kPa, Liquid, Vibrating tube method | 1240
283.15 K, 9760 kPa, Liquid, Vibrating tube method | 1243.2
283.15 K, 10765 kPa, Liquid, Vibrating tube method | 1246.5
283.15 K, 13827 kPa, Liquid, Vibrating tube method | 1255.7
283.15 K, 14841 kPa, Liquid, Vibrating tube method | 1258.4
283.15 K, 17875 kPa, Liquid, Vibrating tube method | 1266.7
283.15 K, 19891 kPa, Liquid, Vibrating tube method | 1272
283.15 K, 21921 kPa, Liquid, Vibrating tube method | 1277.1
283.15 K, 22932 kPa, Liquid, Vibrating tube method | 1279.6
283.15 K, 23948 kPa, Liquid, Vibrating tube method | 1281.9
283.15 K, 24959 kPa, Liquid, Vibrating tube method | 1284.4
283.15 K, 25966 kPa, Liquid, Vibrating tube method | 1286.7
283.15 K, 26982 kPa, Liquid, Vibrating tube method | 1289.1
283.15 K, 27984 kPa, Liquid, Vibrating tube method | 1291.3
283.15 K, 28987 kPa, Liquid, Vibrating tube method | 1293.4
283.15 K, 30001 kPa, Liquid, Vibrating tube method | 1295.7
283.15 K, 31009 kPa, Liquid, Vibrating tube method | 1297.8
283.15 K, 32017 kPa, Liquid, Vibrating tube method | 1300.1
283.15 K, 33020 kPa, Liquid, Vibrating tube method | 1302.1
283.15 K, 34022 kPa, Liquid, Vibrating tube method | 1304.2
292.54 K, 157.2 kPa, Gas, isochoric method | 7.634
292.56 K, 248.7 kPa, Gas, isochoric method | 12.5
292.56 K, 248.8 kPa, Gas, isochoric method | 12.5
292.76 K, 366.1 kPa, Gas, isochoric method | 19.231
292.83 K, 415.4 kPa, Gas, isochoric method | 22.222
293.14 K, 778 kPa, Liquid, Vibrating tube method | 1179.9
293.14 K, 1644 kPa, Liquid, Vibrating tube method | 1184.2
293.14 K, 2650 kPa, Liquid, Vibrating tube method | 1188.7
293.14 K, 4727 kPa, Liquid, Vibrating tube method | 1197.6
293.14 K, 5738 kPa, Liquid, Vibrating tube method | 1201.8
293.14 K, 6755 kPa, Liquid, Vibrating tube method | 1205.9
293.14 K, 7761 kPa, Liquid, Vibrating tube method | 1209.7
293.14 K, 8772 kPa, Liquid, Vibrating tube method | 1213.4
293.14 K, 10798 kPa, Liquid, Vibrating tube method | 1220.7
293.14 K, 12817 kPa, Liquid, Vibrating tube method | 1227.5
293.14 K, 13830 kPa, Liquid, Vibrating tube method | 1230.8
293.14 K, 15838 kPa, Liquid, Vibrating tube method | 1236.9
293.14 K, 16853 kPa, Liquid, Vibrating tube method | 1240.1
293.14 K, 17857 kPa, Liquid, Vibrating tube method | 1243
293.14 K, 20900 kPa, Liquid, Vibrating tube method | 1251.6
293.14 K, 21921 kPa, Liquid, Vibrating tube method | 1254.3
293.14 K, 22938 kPa, Liquid, Vibrating tube method | 1257.2
293.14 K, 23953 kPa, Liquid, Vibrating tube method | 1259.7
293.14 K, 24957 kPa, Liquid, Vibrating tube method | 1262.3
293.14 K, 31009 kPa, Liquid, Vibrating tube method | 1277.1
293.14 K, 32027 kPa, Liquid, Vibrating tube method | 1279.3
293.15 K, 69.4 kPa, Gas, isochoric method | 3.311
293.15 K, 3682 kPa, Liquid, Vibrating tube method | 1193.3
293.15 K, 9788 kPa, Liquid, Vibrating tube method | 1217.1
293.15 K, 11799 kPa, Liquid, Vibrating tube method | 1223.9
293.15 K, 14835 kPa, Liquid, Vibrating tube method | 1233.8
293.15 K, 18879 kPa, Liquid, Vibrating tube method | 1246.2
293.15 K, 19891 kPa, Liquid, Vibrating tube method | 1248.9
293.15 K, 25973 kPa, Liquid, Vibrating tube method | 1264.9
293.15 K, 26985 kPa, Liquid, Vibrating tube method | 1267.4
293.15 K, 27991 kPa, Liquid, Vibrating tube method | 1270
293.15 K, 28993 kPa, Liquid, Vibrating tube method | 1272.4
293.15 K, 30001 kPa, Liquid, Vibrating tube method | 1274.8
293.15 K, 33027 kPa, Liquid, Vibrating tube method | 1281.7
293.15 K, 34035 kPa, Liquid, Vibrating tube method | 1284
293.16 K, 69.4 kPa, Gas, isochoric method | 3.311
302.54 K, 258.5 kPa, Gas, isochoric method | 12.5
302.54 K, 258.6 kPa, Gas, isochoric method | 12.5
302.67 K, 71.8 kPa, Gas, isochoric method | 3.311
302.67 K, 162.7 kPa, Gas, isochoric method | 7.634
302.69 K, 162.7 kPa, Gas, isochoric method | 7.634
302.78 K, 381.8 kPa, Gas, isochoric method | 19.231
